Reference: patent US11639343B2, “Compounds targeting and degrading BCR-ABL protein and its antitumor application” (ShanghaiTech University, priority 2019, dated 2023)
Where two headings read alike, the source gives them in different places.

What was measured:
[1] = biological target: c-ABL protein (Homo sapiens, UniProt P00519); assay: Western blot degradation of c-ABL in K562 cells; assay type: cell-based; set-up: Western blot was used to detect the expression of BCR-ABL and c-ABL protein in K562 cells; endogenous in cells; host or cells: K562; details: 16 hours, 1 nM-10 μM
Experimental: (§1) (1) Cell seed: K562 cells were added to the 24 well plates, with a cell density of 3×10^5/ml and a total volume of 1.5 ml; Five concentration gradients, 1 nm, 10 nm, 100 nm, 1 μM, and 10 μM, were respectively set for PROTAD series compounds and comparative examples compounds (Dasa-6-2-2-6-VHL, Dasa-6-2-6-CRBN). […] After 16 hours of drug treatment, the cells were collected in 1.5 ml ep tube, centrifuged at 3000 rpm for 3 minutes, and then added 30 μL PBS and 30 ul 2×SDS to cell precipitated, lysate Heat at 100° C. for 5 minutes, then place on ice for 5 minutes, centrifuged at 10000 rpm for 5 minutes, and take the supernatant as the total protein extracted. The protein concentration was determined by the Bradford method. After each sample was at the same concentration, bromophenol blue was added as the sample indicator.
(§2) (2) Electrophoresis: the starting voltage of the BioRad electrophoresis instrument was 80V, and as the dye enters the separation gel, the voltage was adjusted to 120V;
(§3) (3) Film transfer: prepare filter paper and nitrocellulose membrane with the corresponding size of the gel, filter paper, and NC film were soaked in transfer electrophoresis buffer.
(§4) DC50 (concentration required to degrade protein by half) were calculated based on the intensity from western blot, and data were analyzed via Prism GraphPad with non-linear regression.

[2] = tested on: HEK293 (BCR-ABL-) cells; assay: CCK-8 proliferation inhibition, HEK293 cells; details: Homo sapiens, HEK293, 48 h, read-out: Proliferative inhibitory activity (IC50, nM) HEK293 (BCR-ABL-);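 note: Ten-point threefold dilution series starting at 10 µM, CCK-8 absorbance at 450 nm read after 2 h reagent incubation, DMSO-treated cells as negative control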
[3] = tested on: U937 (BCR-ABL-) cells; assay: CCK-8 proliferation inhibition, U937 cells; assay type: cell-based, human; details: Homo sapiens, U-937; CCK-8, 48 hours of drug treatment, highest concentration 10 μM; read-out: Proliferative inhibitory activity (IC50, nM) U937 (BCR-ABL-);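 note: Ten-point threefold dilution series, absorbance at 450 nm after 2 h with CCK-8 reagent, DMSO as negative control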
[4] = tested on: K562 (BCR-ABL+) cells; assay: CCK-8 proliferation inhibition, K562 cells; assay type: cell-based, human; details: CCK-8, 48 hours of drug treatment, read-out: Proliferative inhibitory activity (IC50, nM) K562 (BCR-ABL+);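 note: Ten-point threefold dilution series starting at 10 µM, absorbance at 450 nm after 2 h with CCK-8, DMSO as negative control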
[5] = biological target: BCR-ABL protein (Homo sapiens, UniProt P00519); assay: Western blot degradation of BCR-ABL in K562 cells; assay type: cell-based; set-up: Western blot was used to detect the expression of BCR-ABL and c-ABL protein in K562 cells; BCR (fusion partner, P11274); endogenous in cells; host or cells: K562; the other entry of the earlier key: BCR (P11274, Breakpoint cluster region protein); details: 16 hours; for DC50: 1 nM-10 μM
Experimental: as §1, §2, §3, §4

c-ABL protein, sequence (P00519 whole entry): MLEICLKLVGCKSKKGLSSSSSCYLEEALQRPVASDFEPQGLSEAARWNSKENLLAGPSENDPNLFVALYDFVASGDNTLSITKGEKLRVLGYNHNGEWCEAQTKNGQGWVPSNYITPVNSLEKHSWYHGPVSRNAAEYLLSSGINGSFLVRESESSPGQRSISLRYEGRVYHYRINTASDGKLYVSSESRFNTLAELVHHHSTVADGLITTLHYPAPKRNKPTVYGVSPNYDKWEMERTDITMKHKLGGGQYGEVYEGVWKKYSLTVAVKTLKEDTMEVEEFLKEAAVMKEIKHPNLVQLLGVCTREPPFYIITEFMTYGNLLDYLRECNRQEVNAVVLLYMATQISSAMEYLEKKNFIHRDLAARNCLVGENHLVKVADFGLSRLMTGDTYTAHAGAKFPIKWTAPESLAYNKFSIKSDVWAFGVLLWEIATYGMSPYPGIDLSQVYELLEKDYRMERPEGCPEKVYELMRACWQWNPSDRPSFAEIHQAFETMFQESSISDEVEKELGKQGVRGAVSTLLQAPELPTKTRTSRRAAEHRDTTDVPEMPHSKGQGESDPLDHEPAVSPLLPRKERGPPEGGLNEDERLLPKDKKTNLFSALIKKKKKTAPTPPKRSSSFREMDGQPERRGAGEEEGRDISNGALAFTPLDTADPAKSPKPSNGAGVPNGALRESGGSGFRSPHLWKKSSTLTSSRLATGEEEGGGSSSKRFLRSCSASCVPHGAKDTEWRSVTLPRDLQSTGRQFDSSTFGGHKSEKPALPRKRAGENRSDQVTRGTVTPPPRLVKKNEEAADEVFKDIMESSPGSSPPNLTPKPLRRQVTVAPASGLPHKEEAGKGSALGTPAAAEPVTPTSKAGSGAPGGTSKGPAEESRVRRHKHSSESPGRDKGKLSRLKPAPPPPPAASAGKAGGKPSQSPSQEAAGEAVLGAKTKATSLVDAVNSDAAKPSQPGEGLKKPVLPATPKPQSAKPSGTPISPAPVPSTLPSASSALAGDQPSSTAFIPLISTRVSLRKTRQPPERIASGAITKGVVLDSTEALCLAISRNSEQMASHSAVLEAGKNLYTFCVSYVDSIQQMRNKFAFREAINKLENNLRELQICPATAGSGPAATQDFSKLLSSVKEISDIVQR
BCR-ABL protein, sequence (P00519 with tags, fused parts or gaps): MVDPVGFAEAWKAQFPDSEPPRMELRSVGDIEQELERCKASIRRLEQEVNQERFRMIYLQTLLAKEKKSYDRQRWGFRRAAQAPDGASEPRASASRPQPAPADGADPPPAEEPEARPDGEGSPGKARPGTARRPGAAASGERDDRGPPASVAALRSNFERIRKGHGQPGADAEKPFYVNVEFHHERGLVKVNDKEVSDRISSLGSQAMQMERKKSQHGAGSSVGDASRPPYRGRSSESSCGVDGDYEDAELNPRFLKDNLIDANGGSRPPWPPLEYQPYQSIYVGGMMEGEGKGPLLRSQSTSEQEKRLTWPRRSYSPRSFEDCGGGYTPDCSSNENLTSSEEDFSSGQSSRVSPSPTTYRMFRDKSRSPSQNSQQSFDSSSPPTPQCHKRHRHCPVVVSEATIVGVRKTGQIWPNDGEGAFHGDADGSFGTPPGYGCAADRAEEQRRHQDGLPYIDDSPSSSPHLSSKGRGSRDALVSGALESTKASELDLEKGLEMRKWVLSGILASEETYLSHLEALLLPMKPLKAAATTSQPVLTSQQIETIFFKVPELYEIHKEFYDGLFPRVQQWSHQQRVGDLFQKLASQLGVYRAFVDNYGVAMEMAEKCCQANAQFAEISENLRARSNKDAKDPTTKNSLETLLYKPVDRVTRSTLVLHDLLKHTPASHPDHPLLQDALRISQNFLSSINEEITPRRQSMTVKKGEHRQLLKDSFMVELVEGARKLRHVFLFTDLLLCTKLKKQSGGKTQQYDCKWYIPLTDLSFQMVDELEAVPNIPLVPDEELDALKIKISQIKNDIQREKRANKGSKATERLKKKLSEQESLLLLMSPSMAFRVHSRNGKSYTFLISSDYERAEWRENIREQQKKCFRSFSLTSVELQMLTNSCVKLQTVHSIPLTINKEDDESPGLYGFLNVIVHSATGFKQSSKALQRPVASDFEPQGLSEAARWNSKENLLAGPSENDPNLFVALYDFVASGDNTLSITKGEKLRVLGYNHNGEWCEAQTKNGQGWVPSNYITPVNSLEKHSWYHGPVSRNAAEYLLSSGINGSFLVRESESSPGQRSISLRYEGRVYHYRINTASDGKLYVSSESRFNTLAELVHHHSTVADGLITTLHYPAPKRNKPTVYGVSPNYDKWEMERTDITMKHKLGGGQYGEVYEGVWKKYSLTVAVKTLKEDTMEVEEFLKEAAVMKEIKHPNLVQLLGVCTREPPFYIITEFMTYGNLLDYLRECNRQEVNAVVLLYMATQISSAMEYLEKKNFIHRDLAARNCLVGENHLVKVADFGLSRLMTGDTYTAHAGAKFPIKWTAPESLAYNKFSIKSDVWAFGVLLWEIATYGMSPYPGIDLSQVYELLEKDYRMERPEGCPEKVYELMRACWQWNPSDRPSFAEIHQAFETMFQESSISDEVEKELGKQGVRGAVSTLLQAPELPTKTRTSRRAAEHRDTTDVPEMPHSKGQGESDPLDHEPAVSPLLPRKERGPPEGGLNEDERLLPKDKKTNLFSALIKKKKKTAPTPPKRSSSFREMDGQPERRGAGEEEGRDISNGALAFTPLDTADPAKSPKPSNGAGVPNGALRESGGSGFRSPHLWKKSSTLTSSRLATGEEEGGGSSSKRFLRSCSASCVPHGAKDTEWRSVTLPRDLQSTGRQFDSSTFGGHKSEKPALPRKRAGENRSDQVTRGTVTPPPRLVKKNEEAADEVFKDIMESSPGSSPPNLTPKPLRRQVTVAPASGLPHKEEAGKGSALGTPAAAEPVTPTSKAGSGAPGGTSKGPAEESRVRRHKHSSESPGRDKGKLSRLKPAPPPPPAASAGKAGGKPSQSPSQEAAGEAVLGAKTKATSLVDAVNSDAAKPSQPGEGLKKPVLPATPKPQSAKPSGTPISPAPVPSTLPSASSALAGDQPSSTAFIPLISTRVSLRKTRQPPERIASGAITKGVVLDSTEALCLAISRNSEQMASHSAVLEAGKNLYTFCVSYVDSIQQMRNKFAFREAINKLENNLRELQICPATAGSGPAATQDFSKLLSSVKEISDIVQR

| DC50 [1] [nM] | IC50 [3] [nM] | IC50 ([4]; Homo sapiens, K562, 48 h) [nM] | DC50 [5] [nM] | degradation of BCR-ABL protein (in words) [5] | IC50 [4] [nM] | SMILES | IC50 [2] [nM] |
| --- | --- | --- | --- | --- | --- | --- | --- |
| 1 to 10 | > 10000 | 0.55 | < 1 |  |  | Cc1nc(Nc2ncc(C(=O)Nc3c(C)cccc3Cl)s2)cc(N2CCN(C(=O)CCCCNc3cccc4c3C(=O)N(C3CCC(=O)NC3=O)C4=O)CC2)n1 (stereo not drawn) [SIAIS151071, N-(2-chloro-6-methylphenyl)-2-((6-(4-(5-((2-(2,6-dioxopiperidin-3-yl)-1,3-dioxoisoindolin-4-yl)amino)pentanoyl)piperazin-1-yl)-2-methylpyrimidin-4-yl)amino)thiazole-5-carboxamide] | > 10000 |
| 1000 |  |  | 1000 |  |  | Cc1ccc(NC(=O)c2ccc(CN3CCN(C(=O)CCOCCOCCOCCOCCC(=O)N[C@H](C(=O)N4C[C@H](O)C[C@H]4C(=O)NCc4ccc(-c5scnc5C)cc4)C(C)(C)C)CC3)cc2)cc1Nc1nccc(-c2cccnc2)n1 [SIAIS1197039, (2S,4R)-1-((S)-2-(tert-butyl)-19-(4-(4-((4-methyl-3-((4-(pyridin-3-yl)pyrimidin-2-yl)amino)phenyl)carbamoyl)benzyl)piperazin-1-yl)-4,19-dioxo-7,10,13,16-tetraoxa-3-azanonadecanoyl)-4-hydroxy-N-(4-(4-methylthiazol-5-yl)benzyl)pyrrolidine-2-carboxamide] |  |
|  |  |  |  | cannot degrade BCR-ABL protein |  | Cc1nc(Nc2ncc(C(=O)Nc3c(C)cccc3Cl)s2)cc(N2CCN(CCCCCCOCCOCCOCCCCCC(=O)N[C@H](C(=O)N3C[C@H](O)C[C@H]3C(=O)NCc3ccc(-c4scnc4C)cc3)C(C)(C)C)CC2)n1 [Dasa-6-2-2-6-vhl, N-(2-chloro-6-methylphenyl)-2-((6-(4-((S)-3-((2S,4R)-4-hydroxy-2-((4-(4-methylthiazol-5-yl)benzyl)carbamoyl)pyrrolidine-1-carbonyl)-2,2-dimethyl-5-oxo-11,14,17-trioxa-4-azatricosan-23-yl)piperazin-1-yl)-2-methylpyrimidin-4-yl)amino)thiazole-5-carboxamide, reference compound] |  |
|  | > 10000 | 72 |  |  |  | Cc1nc(Nc2ncc(C(=O)Nc3c(C)cccc3Cl)s2)cc(N2CCN(C(=O)CCCCNC(=O)CCCCCCCCC(=O)N[C@H](C(=O)N3C[C@H](O)C[C@H]3C(=O)NCc3ccc(-c4scnc4C)cc3)C(C)(C)C)CC2)n1 [SIAIS184032, N1-(5-(4-(6-((5-((2-chloro-6-methylphenyl)carbamoyl)thiazol-2-yl)amino)-2-methylpyrimidin-4-yl)piperazin-1-yl)-5-oxopentyl)-N10-((S)-1-((2S,4R)-4-hydroxy-2-((4-(4-methylthiazol-5-yl)benzyl)carbamoyl)pyrrolidin-1-yl)-3,3-dimethyl-1-oxobutan-2-yl)decanediamide] | > 10000 |
|  | > 10000 |  |  |  | 2240 | Cc1nc(Nc2ncc(C(=O)Nc3c(C)cccc3Cl)s2)cc(N2CCN(C(=O)COCCOCC(=O)N[C@H](C(=O)N3C[C@H](O)C[C@H]3C(=O)NCc3ccc(-c4scnc4C)cc3)C(C)(C)C)CC2)n1 [SIAIS151080, N-(2-chloro-6-methylphenyl)-2-((6-(4-(2-(2-(2-(((S)-1-((2S,4R)-4-hydroxy-2-((4-(4-methylthiazol-5-yl)benzyl)carbamoyl)pyrrolidin-1-yl)-3,3-dimethyl-1-oxobutan-2-yl)amino)-2-oxoethoxy)ethoxy)acetyl)piperazin-1-yl)-2-methylpyrimidin-4-yl)amino)thiazole-5-carboxamide] | > 10000 |
|  | > 10000 | 438 |  |  |  | COc1cc(Nc2c(C#N)cnc3cc(OCCCN4CCN(C(=O)CCCC(=O)Nc5cccc6c5CN(C5CCC(=O)NC5=O)C6=O)CC4)c(OC)cc23)c(Cl)cc1Cl (stereo not drawn) [SIAIS164106, 5-(4-(3-((3-cyano-4-((2,4-dichloro-5-methoxyphenyl)amino)-6-methoxyquinolin-7-yl)oxy)propyl)piperazin-1-yl)-N-(2-(2,6-dioxopiperidin-3-yl)-1-oxoisoindolin-4-yl)-5-oxopentanamide] | > 10000 |
|  | > 10000 | 1610 |  |  |  | Cc1nc(Nc2ncc(C(=O)Nc3c(C)cccc3Cl)s2)cc(N2CCN(C(=O)CCOCCOCCOCCOCCOCCC(=O)N[C@H](C(=O)N3C[C@H](O)C[C@H]3C(=O)NCc3ccc(-c4scnc4C)cc3)C(C)(C)C)CC2)n1 [SIAIS151079, N-(2-chloro-6-methylphenyl)-2-((6-(4-((S)-21-((2S,4R)-4-hydroxy-2-((4-(4-methylthiazol-5-yl)benzyl)carbamoyl)pyrrolidine-1-carbonyl)-22,22-dimethyl-19-oxo-4,7,10,13,16-pentaoxa-20-azatricosanoyl)piperazin-1-yl)-2-methylpyrimidin-4-yl)amino)thiazole-5-carboxamide] | > 10000 |
| 100 to 1000 |  |  | 100 to 1000 |  |  | Cc1ccc(NC(=O)c2ccc(CN3CCN(C(=O)CCCCCCC(=O)N[C@H](C(=O)N4C[C@H](O)C[C@H]4C(=O)NCc4ccc(-c5scnc5C)cc4)C(C)(C)C)CC3)cc2)cc1Nc1nccc(-c2cccnc2)n1 [SIAIS074031, (2S,4R)-1-((S)-3,3-dimethyl-2-(8-(4-(4-((4-methyl-3-((4-(pyridin-3-yl)pyrimidin-2-yl)amino)phenyl)carbamoyl)benzyl)piperazin-1-yl)-8-oxooctanamido)butanoyl)-4-hydroxy-N-(4-(4-methylthiazol-5-yl)benzyl)pyrrolidine-2-carboxamide] |  |
|  | > 10000 | 32.3 |  |  |  | Cc1nc(Nc2ncc(C(=O)Nc3c(C)cccc3Cl)s2)cc(N2CCN(C(=O)CCCCCCCCCCCCCCC(=O)N[C@H](C(=O)N3C[C@H](O)C[C@H]3C(=O)NCc3ccc(-c4scnc4C)cc3)C(C)(C)C)CC2)n1 [SIAIS164194, N-(2-chloro-6-methylphenyl)-2-((6-(4-(16-(((S)-1-((2S,4R)-4-hydroxy-2-((4-(4-methylthiazol-5-yl)benzyl)carbamoyl)pyrrolidin-1-yl)-3,3-dimethyl-1-oxobutan-2-yl)amino)-16-oxohexadecanoyl)piperazin-1-yl)-2-methylpyrimidin-4-yl)amino)thiazole-5-carboxamide] | > 10000 |
|  | > 10000 | 811 |  |  |  | COc1cc(Nc2c(C#N)cnc3cc(OCCCN4CCN(C(=O)CC(=O)Nc5cccc6c5CN(C5CCC(=O)NC5=O)C6=O)CC4)c(OC)cc23)c(Cl)cc1Cl (stereo not drawn) [SIAIS164104, 3-(4-(3-((3-cyano-4-((2,4-dichloro-5-methoxyphenyl)amino)-6-methoxyquinolin-7-yl)oxy)propyl)piperazin-1-yl)-N-(2-(2,6-dioxopiperidin-3-yl)-1-oxoisoindolin-4-yl)-3-oxopropanamide] | > 10000 |
| 10 to 100 |  |  | 10 to 100 |  |  | COc1cc(Nc2c(C#N)cnc3cc(OCCCN4CCN(C(=O)CNc5cccc6c5C(=O)N(C5CCC(=O)NC5=O)C6=O)CC4)c(OC)cc23)c(Cl)cc1Cl (stereo not drawn) [SIAIS151164, 4-((2,4-dichloro-5-methoxyphenyl)amino)-7-(3-(4-((2-(2,6-dioxopiperidin-3-yl)-1,3-dioxoisoindolin-4-yl)glycyl)piperazin-1-yl)propoxy)-6-methoxyquinoline-3-carbonitrile] |  |
|  | > 10000 | 6.8 |  |  |  | Cc1nc(Nc2ncc(C(=O)Nc3c(C)cccc3Cl)s2)cc(N2CCN(C(=O)CCNc3cccc4c3C(=O)N(C3CCC(=O)NC3=O)C4=O)CC2)n1 (stereo not drawn) [SIAIS151074, N-(2-chloro-6-methylphenyl)-2-((6-(4-(3-((2-(2,6-dioxopiperidin-3-yl)-1,3-dioxoisoindolin-4-yl)amino)propanoyl)piperazin-1-yl)-2-methylpyrimidin-4-yl)amino)thiazole-5-carboxamide] | > 10000 |
